Ends that are not written are not given here.
Tests used:
[1] = tested on: PC12 cells; experiment: Effect of EDTA or MnCl2 pretreatment on cell adhesion and spreading; format: cell-based, rat; conditions: 5 mM EDTA or 1 mM MnCl2, 15 min; for cell adhesion to laminin after pretreatment / cell adhesion to rLG3 or Ln2-LG3-P2 after pretreatment: 1 h; for cell spreading to laminin after pretreatment / cell spreading to rLG3 or Ln2-LG3-P2 after pretreatment: 3 h
Description: PC12 cells were pretreated with either 5 mM EDTA or 1 mM MnCl2 for 15 min at 37° C. and seeded on plates coated with rLG3 or the Ln2-LG3-P2 peptide. To measure cell adhesion, PC12 cells were incubated on the coated plates for 1 h and absorbance was measured. To measure cell spreading, PC12 cells were incubated on the coated plates for 3 h and relative cell area was measured using Image-Pro Plus software.

[2] = tested on: PC12 cells; experiment: Cell adhesion inhibition assay: peptide pretreatment, adhesion to rLG3-coated plates; format: cell-based, rat; conditions: PC12 cells pretreated with 500 μg/mL peptide; rLG3 25 μg/mL
Description: Specifically, PC12 cells were pretreated with the Ln2-LG3-P2 peptide in concentrations of 0, 0.2, 0.4, 0.6, 0.8, 1.0, or 1.2 μg/mL for 10 min at room temperature and then cultured on plates coated with rLG3 (25 μg/mL) for 1 h in serum-free medium.
PC12 cells were pretreated with 500 μg/mL of Ln2-LG3-P1, Ln2-LG3-P2, Ln2-LG3-P3, Ln2-LG3-P4, Ln2-LG3-P5 and SP (scramble peptide) (SEQ ID NO:20) for 10 min at room temperature and then cultured on plates coated with rLG3 (25 μg/mL) in serum-free medium. To observe cell adhesion, PC12 cells were incubated on the coated plates for 1 h and to observe cell spreading, PC12 cells were incubated on the coated plates for 3 h. To observe cell migration, cells were seed into the upper chamber of transwell filters coated with rLG3 (25 μg/mL) and cultured for 24 h. Cell migration was quantified by counting the number of cells that had migrated through the filter.
Specifically, PC12 cells were pretreated with Ln2-LG2-P2 (500 μg/mL) and Ln2-LG3-P2A (500 μg/mL) and then, cell adhesion was observed on plates coated with rLG3 (25 μg/mL).

[3] = tested on: PC12 cells; experiment: Cell adhesion assay on coated plates (crystal violet, absorbance 570 nm); format: cell-based, rat
Description: The cell adhesion assay was performed as described in a paper published previously by the present inventors (Kim, J. M., et al, Exp. Cell Res, 2005).
Specifically, 24-well culture plates (Nunc, Denmark) were coated with 5 μg/mL human placental laminin (Sigma-Aldrich, St. Louis, Mo.) or 25 μg/mL rLG domain proteins for 12 h at 4° C. The peptides were also coated on the plates by drying for 12 h at room temperature. The substrate-coated plates were blocked with 1% heat-inactivated bovine serum albumin (BSA) in PBS for 1 h at 37° C. and then washed with PBS.
The cells were trypsinized with trypsin/EDTA and resuspended in serum-free culture medium. The cells were added at a density of 2×10^5 cells/500 μL to each plate and incubated in serum-free culture medium for 1 h at 37° C. After incubation, unattached cells were removed by rinsing twice with PBS. The attached cells were fixed with 10% formalin for 15 min and then stained with 0.5% crystal violet for 1 h. Plates were gently washed with distilled water three times and dissolved with 2% SDS for 5 min. Absorbance was measured at 570 nm using a microplate reader (BioRad).
First, PC12 cells were cultured on plates coated with varying amounts of five kinds of Ln2-PG3 peptides and then cell adhesion was observed. The peptides were coated in concentrations ranging from 0 to 125 μg/mL on plates by drying them for 12 h at room temperature.
(§1) The present inventors compared the cellular activities of Ln2-LG3-P2 peptide to scrambled peptide (SEQ ID NO:20, NWEIRCIPGNPF) of Ln2-LG3-P2 peptide and Ln2-LG3-P1 peptide to Ln2-LG3-P5 peptide at a concentration of 62.5 μg/mL where the cell adhesion activity was the maximum. […] PC12 cells were cultured on plates which were coated in the same way for 3 h in serum-free medium and the cell spreading was observed.
(§2) Specifically, to observe cell adhesion, spreading, migration, and neurite outgrowth promotion, the methods described in Experimental examples <2-1> to <2-3> were used and PC12 cells were cultured on plates coated with laminin (5 μg/mL), rLG3 (25 μg/mL), and rLG3-M1 (25 μg/mL) and observed. To observe cell adhesion, PC12 cells were incubated on the coated plates for 1 h and to observe cell spreading, PC12 cells were incubated on the coated plates for 3 h. To observe cell migration, PC12 cells were incubated on the coated plates for […].
(§3) To measure cell adhesion, spreading, migration, and neurite outgrowth promotive activities of PC12 cells using the prepared synthetic peptides that are N- and C-terminal truncated or C-terminal added peptides of the Ln2-LG3-P2 peptide, peptides described in Table 1 were coated onto plates at 62.5 μg/mL and PC12 cells were seeded thereon.

[4] = tested on: PC12 cells; experiment: Cell spreading assay on coated plates (cell surface area); format: cell-based, rat; conditions: 3 h, laminin 5 μg/mL, rLG proteins 25 μg/mL, peptides 62.5 μg/mL
Description: To determine cell spreading assays, the cells cultured on plates coated with each rLG domain protein for 1 h or 3 h in Experimental example <2-1> were fixed with 10% formalin. Then, the fixed cells were stained with 0.05% crystal violet for 1 h and plates were gently washed with PBS three times. The surface area of cells was measured with Image-Pro plus software (Version 4.5; Media Cybernetics, Silver Spring, Md.).
as §1, §2, §3

[5] = tested on: PC12 cells; experiment: Cell migration assay (transwell migration chambers); format: cell-based, rat; conditions: transwell filters coated with laminin 5 μg/mL, rLG proteins 25 μg/mL or peptides 62.5 μg/mL, 24 h
Description: Cell migration assays were performed using transwell migration chambers of 8 μm in pore size (Corning Inc., NY) as described in a paper published previously by the present inventors (Kim, J. M., Min, S. K., Kim, H., Kang, H. K., Jung, S. Y., Lee, S. H., Choi, Y., Roh, S., Jeong, D., and Min, B. M. (2007) Int. J. Mol. Med.).
The lower sides of transwell filters were coated with laminin (5 μg/mL) or rLG proteins (25 μg/mL) for 12 h at 4° C. The lower sides of transwell filters were blocked with 1% BSA in PBS for 1 h at 37° C. Cells were suspended at a density of 4×10^5 cells/mL in RPMI 1640 medium containing 0.5% FBS and 0.1% BSA. 100 μL of this suspension was seeded in the upper chamber of the transwell filter. Cells were allowed to migrate for 24 h at 37° C. and then fixed with 10% formalin for 15 min and stained with 0.5% crystal violet. Non-migrated cells in the upper chamber of transwell filters were removed with a cotton swab, viewed under a light microscope, and counted.
as §2

[6] = tested on: PC12 cells; experiment: Immunostaining of actin stress fibers and focal adhesions; format: cell-based, rat; conditions: PC12 cells on coated chamber slides, 3 h, serum-free
Description: Specifically, for immunostaining, PC12 cells were incubated on Lab-Tek chamber slides (Nalge Nunc International, Rochester, N.Y.) coated with laminin (5 μg/mL), rLG domain proteins (25 μg/mL), or Scrambled peptide (SP) (25 μg/well) in serum-free medium for 3 h at 37° C. Lab-Tek chamber slides were coated with BSA for the control. After rinsing with PBS, PC12 cells were fixed with 3.7% formalin for 20 min and permeabilized with 0.5% Triton X-100 for 5 min. PC12 cells were incubated with primary antibodies for 12 h at 4° C. The primary antibodies used were 1:500 anti-vinculin (Sigma-Aldrich 9131), or 1:300 rhodamin-phalloidin (Invitrogen R154) antibodies. After rinsing with PBS, PC12 cells were immunostained with FITC-conjugated anti-mouse IgG antibody (Jackson ImmunoResearch Laboratories, West Grove, Pa.) or rhodamin-conjugated anti-mouse IgG antibody (Santa Cruz Biotechnology) for 1 h at room temperature. After being washed three times with PBS, the stained PC12 cells were mounted and photographed using a confocal laser scanning microscope (FV300; Olympus, Japan).

[7] = tested on: PC12 cells; experiment: Summary of cell adhesion, spreading, migration and neurite outgrowth promotive effects; format: cell-based, rat; conditions: summary statement of the description
Description: as §3

[8] = tested on: PC12 cells; conditions: at the indicated concentrations and duration of treatment
[9] = tested on: PC12 cells; experiment: Effect of calphostin C pretreatment on cell adhesion; format: cell-based, rat; conditions: PC12 cells, 0.05, 0.1, 0.5 μM, 15 min; 1 h
Description: PC12 cells were pretreated with 0.05 μM, 0.1 μM, and 0.5 μM of calphostin C for 15 min at 37° C. and then incubated on plates coated with rLG3 or the Ln2-LG3-P2 peptide for 1 h.

[10] = tested on: PC12 cells; experiment: Inhibition of cell adhesion to laminin by rLG3 / rLG3-M1 pretreatment; format: cell-based, rat; conditions: PC12 cells pretreated with 250 μg/mL; laminin 5 μg/mL
Description: In addition, PC12 cells were pretreated with rLG3 (250 or 500 μg/mL) or vehicle (phosphate buffer, pH 3.0) for 30 min and then seeded on plates coated with laminin (5 μg/mL) for 30 min in serum-free medium and cell adhesion was observed.

[11] = tested on: PC12 cells; experiment: Neurite outgrowth assay; format: cell-based, rat; conditions: PC12 cells on coated plates, serum-free, 24 h + 72 h
Description: Laminin, rLG domain protein, and the peptide were coated onto plates and cells were seeded on the plates in serum-free medium and incubated for 24 h. After changing with serum-free medium again, cells were further cultured for 72 h and neurite outgrowth was examined.

O=C(O)CN(CCN(CC(=O)O)CC(=O)O)CC(=O)O [EDTA]
cell adhesion to laminin after pretreatment [1]: completely inhibited | cell adhesion to rLG3 or Ln2-LG3-P2 after pretreatment [1]: partially inhibited | cell spreading to laminin after pretreatment [1]: completely inhibited | cell spreading to rLG3 or Ln2-LG3-P2 after pretreatment [1]: partially inhibited

[Cl][Mn][Cl] [Mn^2+, MnCl2]
cell adhesion to laminin after pretreatment [1]: significantly enhanced | cell adhesion to rLG3 or Ln2-LG3-P2 after pretreatment [1]: significantly enhanced | cell spreading to laminin after pretreatment [1]: significantly enhanced | cell spreading to rLG3 or Ln2-LG3-P2 after pretreatment [1]: significantly enhanced

Ln2-LG3-P2A: Ln2-LG3-P2 peptide synthesized by substituting Arg with Ala (ANIPPFEGCIWN-NH2)
inhibition of cell adhesion to rLG3 (in words) [2]: did not inhibit | cell adhesion compared to the control group Ln2-LG3-P2 ([3]; PC12 cells on plates coated with peptide (500 μg/mL, FIG. 3H)): significantly inhibited

NWEIRCIPGNPF (NWEIRCIPGNPF-NH2) [scrambled peptide, scrambled peptide of Ln2-LG3-P2 peptide, negative control, reference compound]
cell spreading [4]: entirely ineffective | cell migration [5]: entirely ineffective | actin stress fiber formation and focal adhesions [6]: did not organize actin stress fibers | cell spreading (immunostaining) [6]: no effect on spreading

PFEGCIWN (PFEGCIWN-NH2) [Ln2-LG3-P2-DN4, N-terminal truncated Ln2-LG3-P2]
cell migration [5]: did not show cell migration activity

PPFEGCIWN (PPFEGCIWN-NH2) [Ln2-LG3-P2-DN3, N-terminal truncated Ln2-LG3-P2]
cell adhesion, spreading, migration, and neurite outgrowth promotive effects [7]: significantly excellent

RNIPPFEGCIWNLVINSVPMDFAR (RNIPPFEGCIWNLVINSVPMDFAR-NH2) [Ln2-LG3-P2-AC1, C-terminal added Ln2-LG3-P2]
cell adhesion, spreading, migration, and neurite outgrowth promotive effects [7]: significantly excellent

RNIPPFEGCIWNLVINSVPMDFARPVSFKNADIGRC (RNIPPFEGCIWNLVINSVPMDFARPVSFKNADIGRC-NH2; cysteine pairing not given here) [Ln2-LG3-P2-AC2, C-terminal added Ln2-LG3-P2]
cell adhesion, spreading, migration, and neurite outgrowth promotive effects [7]: significantly excellent

calphostin C
cell growth [8]: did not affect cell growth | cell adhesion activities to laminin, rLG3, and Ln2-LG3-P2 after inhibitor pretreatment [9]: significantly inhibited in a dose-dependent manner

rLG3-M1: mutant rLG3 protein, Arg in the Ln2-LG3-P2 site substituted with Ala (ANIPPFEGCIWN) (rLG3-M1)
cell adhesion ([3]; PC12 cells on coated plates, 1 h, serum-free, laminin 5 μg/mL, rLG proteins 25 μg/mL, peptides 62.5 μg/mL (0 to 125 μg/mL in FIG. 2B)): significantly reduced levels | cell spreading [4]: significantly reduced levels | inhibition of cell adhesion to laminin (in words) [10]: did not inhibit | cell migration [5]: significantly reduced levels | neurite outgrowth [11]: significantly reduced levels
